Assay results as given in patent publication US12606541B2, “PPARg modulators and methods of use” (Eisai R&D Management Co., Ltd., priority 2020, dated 2026).
Like-named read-outs stand apart in the source and are kept apart here.

Key:
[1] = biological target: T1, His6-TEV-PPARγ-(234-505) (Homo sapiens, UniProt P37231); assay: TR-FRET Assay to Measure Co-R Peptide Recruitment to PPARγ; format: biochemical; settings: Co-R peptide (SMRT-ID2) recruitment; top final concentration 20 μM; read-out: TR-FRET i-Ag; AC50
T1 construct: The His6-TEV-PPARγ-(234-505) protein for assay was expressed and purified; TEV cleavage site (N); made in house
T1 sequence (P37231 234-505): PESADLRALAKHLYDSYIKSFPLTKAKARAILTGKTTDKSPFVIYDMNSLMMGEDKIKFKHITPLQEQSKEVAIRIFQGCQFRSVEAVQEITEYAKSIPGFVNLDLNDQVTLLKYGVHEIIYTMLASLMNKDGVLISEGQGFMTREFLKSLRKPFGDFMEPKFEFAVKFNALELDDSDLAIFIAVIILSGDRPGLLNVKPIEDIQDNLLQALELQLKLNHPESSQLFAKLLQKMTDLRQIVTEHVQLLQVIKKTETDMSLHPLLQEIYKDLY
Method in brief: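 Corepressor recruitment is measured by adding terbium-labeled anti-His antibody and FITC SMRT-ID2 peptide, at 5 and 200 nM final, after a 20-minute room-temperature protein–compound incubation. After one further hour, signal is converted to percent response between DMSO and 500 nM T0070907 wells.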

[2] = tested on: UM-UC-9 engineered cells; assay: Cell proliferation / short-term viability assay, CellTiter-Glo 144 h; format: cell-based, human; settings: read-out: CTGlo 144 h UMUC9.5, G150
Method in brief: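 Viability read by CellTiter-Glo 2.0 luminescence at day 7 versus DMSO-vehicle wells and a T0 plate measured on day 0. Cells: UM-UC-9 engineered assay-ready stocks, 500 cells/well in high-glucose DMEM with 10% FBS, 37° C, 5% CO2.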

AC50 [1] [µM] | Compound | IC50 [2] [µM] | IC50 ([2]; Homo sapiens, UM-UC-9, 144 h) [µM]
0.244 | COc1cc(-c2cc(C(=O)N3CCC(C(=O)N[C@H]4CC[C@@](O)(C(F)(F)F)CC4)C[C@@H]3C(F)(F)F)n[nH]2)c(F)cn1 (mixture of isomers) [Example 368, (2R,4R)-1-(5-(5-fluoro-2-methoxypyridin-4-yl)-1H-pyrazole-3-carbonyl)-N-((1r,4R)-4-hydroxy-4-(trifluoromethyl)cyclohexyl)-2-(trifluoromethyl)piperidine-4-carboxamide and (2R,4S)-1-(5-(5-fluoro-2-methoxypyridin-4-yl)-1H-pyrazole-3-carbonyl)-N-((1r,4S)-4-hydroxy-4-(trifluoromethyl)cyclohexyl)-2-(trifluoromethyl)piperidine-4-carboxamide] |  | 0.497
0.0061 | Cc1cc(-c2cc(C(=O)N3CCC(C(=O)NCc4ccc5[nH]ccc5c4)CC3)n[nH]2)c(F)cn1 [Example 271, 1-[5-(5-fluoro-2-methylpyridin-4-yl)-1H-pyrazole-3-carbonyl]-N-(1H-indol-5-ylmethyl)piperidine-4-carboxamide] |  | 0.0303
0.262 | COc1cc(-c2cc(C(=O)N3CCC(C(=O)NCc4ncccc4F)CC3)n[nH]2)c(Cl)cn1 [Example 146, 1-(5-(5-chloro-2-methoxypyridin-4-yl)-1H-pyrazole-3-carbonyl)-N-((3-fluoropyridin-2-yl)methyl)piperidine-4-carboxamide] |  | 1.41
0.0877 | CCN1CC(NC(=O)[C@H]2CCN(C(=O)c3cc(-c4cc(OC)ncc4F)[nH]n3)C3(CC3)C2)CCC12COC2 (stereo partly drawn) [Example 497, (7S)—N-(5-ethyl-2-oxa-5-azaspiro[3.5]nonan-7-yl)-4-(5-(5-fluoro-2-methoxypyridin-4-yl)-1H-pyrazole-3-carbonyl)-4-azaspiro[2.5]octane-7-carboxamide] |  | 0.645
0.853 | COc1cc(-c2cc(C(=O)N3CCC(C(=O)NCc4ccc5ncoc5c4)CC3)n[nH]2)c(Cl)cn1 [Example 152] |  | 0.825
1.6 | COc1cc(-c2cc(C(=O)N3CC[C@H](C(=O)NC4CCC5CCCN5C4)CC34CC4)n[nH]2)c(F)cn1 (single isomer, unassigned) [Example 376-B] | 3.88 | 
0.0774 | COc1cc(-c2cc(C(=O)N3CCC(C(=O)NCc4ccc5[nH]c(C)cc5c4)CC3)n[nH]2)c(Cl)cn1 [Example 203, 1-(5-(5-chloro-2-methoxypyridin-4-yl)-1H-pyrazole-3-carbonyl)-N-((2-methyl-1H-indol-5-yl)methyl)piperidine-4-carboxamide] |  | 0.0964
0.0134 | COc1cc(-c2cc(C(=O)N3CC[C@H](C(=O)NCc4ncc(C(F)(F)F)cn4)CC34CC4)n[nH]2)c(F)cn1 [Example 457, (S)-4-(5-(5-fluoro-2-methoxypyridin-4-yl)-1H-pyrazole-3-carbonyl)-N-((5-(trifluoromethyl)pyrimidin-2-yl)methyl)-4-azaspiro[2.5]octane-7-carboxamide] |  | 0.415
0.0042 | COc1cc(-c2cc(C(=O)N3CC[C@H](C(=O)NCc4cn(C)nc4C(F)(F)F)CC34CC4)[nH]n2)c(F)cn1 [Example 509, (S)-4-(3-(5-fluoro-2-methoxypyridin-4-yl)-1H-pyrazole-5-carbonyl)-N-((1-methyl-3-(trifluoromethyl)-1H-pyrazol-4-yl)methyl)-4-azaspiro[2.5]octane-7-carboxamide] |  | 0.007
0.012 | Cc1cc(-c2cc(C(=O)N3CCC(C(=O)NCc4ccc5[nH]nc(F)c5c4)CC3)n[nH]2)c(F)cn1 [Example 269, N-[(3-fluoro-1H-indazol-5-yl)methyl]-1-[5-(5-fluoro-2-methylpyridin-4-yl)-1H-pyrazole-3-carbonyl]piperidine-4-carboxamide] |  | 0.16
0.136 | COc1cc(-c2cc(C(=O)N3CCC(C(=O)NCc4c[nH]c5ncccc45)CC3)n[nH]2)c(Cl)cn1 [Example 202, N-((1H-pyrrolo[2,3-b]pyridin-3-yl)methyl)-1-(5-(5-chloro-2-methoxypyridin-4-yl)-1H-pyrazole-3-carbonyl)piperidine-4-carboxamide] |  | 1.59
0.079 | COc1cc(-c2cc(C(=O)N3CC[C@@H](C(=O)N[C@H]4CC[C@@](O)(C(F)(F)F)CC4)CC34CC4)n[nH]2)c(F)cn1 (single isomer, unassigned) [Example 169-A] |  | 0.273
0.0029 | COc1cc(-c2cc(C(=O)N3CC[C@H](C(=O)Nc4cnn5c4OC(C)(C)CC5)CC34CC4)n[nH]2)c(F)cn1 [Example 498, (S)—N-(5,5-dimethyl-6,7-dihydro-5H-pyrazolo[5,1-b][1,3]oxazin-3-yl)-4-(5-(5-fluoro-2-methoxypyridin-4-yl)-1H-pyrazole-3-carbonyl)-4-azaspiro[2.5]octane-7-carboxamide] |  | 0.0219

Compound | AC50 [1] [µM] | IC50 [2] [µM] | IC50 ([2]; Homo sapiens, UM-UC-9, 144 h) [µM]
COc1cc(-c2cc(C(=O)N3CCC(C(=O)NC4CCOc5cc(F)cnc54)CC34CC4)n[nH]2)c(F)cn1 (mixture of isomers) [Example 383, (S)-4-(5-(5-fluoro-2-methoxypyridin-4-yl)-1H-pyrazole-3-carbonyl)-N—((R)-7-fluoro-3,4-dihydro-2H-pyrano[3,2-b]pyridin-4-yl)-4-azaspiro[2.5]octane-7-carboxamide and (S)-4-(5-(5-fluoro-2-methoxypyridin-4-yl)-1H-pyrazole-3-carbonyl)-N—((S)-7-fluoro-3,4-dihydro-2H-pyrano[3,2-b]pyridin-4-yl)-4-azaspiro[2.5]octane-7-carboxamide] | 0.0331 | 0.0431 | 
COc1cc(-c2cc(C(=O)N3CCC(C(=O)NCC4CCn5cncc5C4)CC34CC4)[nH]n2)c(F)cn1 (mixture of isomers) [Example 342, (8)-4-(3-(5-fluoro-2-methoxypyridin-4-yl)-1H-pyrazole-5-carbonyl)-N—(((R)-5,6,7,8-tetrahydroimidazo[1,5-a]pyridin-7-yl)methyl)-4-azaspiro[2.5]octane-7-carboxamide and (S)-4-(3-(5-fluoro-2-methoxypyridin-4-yl)-1H-pyrazole-5-carbonyl)-N—(((S)-5,6,7,8-tetrahydroimidazo[1,5-a]pyridin-7-yl)methyl)-4-azaspiro[2.5]octane-7-carboxamide] | 0.0783 | 1.13 | 
COc1cc(-c2cc(C(=O)N3CCC(C(=O)NC4CCN(CCF)C(C)(C)C4)CC34CC4)n[nH]2)c(F)cn1 (mixture of isomers) [Example 425, (S)-4-(5-(5-fluoro-2-methoxypyridin-4-yl)-1H-pyrazole-3-carbonyl)-N—((S)-1-(2-fluoroethyl)-2,2-dimethylpiperidin-4-yl)-4-azaspiro[2.5]octane-7-carboxamide and (S)-4-(5-(5-fluoro-2-methoxypyridin-4-yl)-1H-pyrazole-3-carbonyl)-N—((R)-1-(2-fluoroethyl)-2,2-dimethylpiperidin-4-yl)-4-azaspiro[2.5]octane-7-carboxamide] | 0.901 | > 10 | 
COc1cc(-c2cc(C(=O)N3CCC(C(=O)NCC4CCc5n[nH]cc5C4)CC34CC4)[nH]n2)c(F)cn1 (mixture of isomers) [Example 341, (S)-4-(3-(5-fluoro-2-methoxypyridin-4-yl)-1H-pyrazole-5-carbonyl)-N—(((R)-4,5,6,7-tetrahydro-2H-indazol-5-yl)methyl)-4-azaspiro[2.5]octane-7-carboxamide and (S)-4-(3-(5-fluoro-2-methoxypyridin-4-yl)-1H-pyrazole-5-carbonyl)-N—(((S)-4,5,6,7-tetrahydro-2H-indazol-5-yl)methyl)-4-azaspiro[2.5]octane-7-carboxamide] | 0.005 | 0.0103 | 
COc1cc(-c2cc(C(=O)N3CCC(C(=O)NC4CCN(CC5(O)COC5)C4)CC34CC4)n[nH]2)c(F)cn1 (mixture of isomers) [Example 454, (S)-4-(5-(5-fluoro-2-methoxypyridin-4-yl)-1H-pyrazole-3-carbonyl)-N—((R)-1-((3-hydroxyoxetan-3-yl)methyl)pyrrolidin-3-yl)-4-azaspiro[2.5]octane-7-carboxamide and (S)-4-(5-(5-fluoro-2-methoxypyridin-4-yl)-1H-pyrazole-3-carbonyl)-N—((S)-1-((3-hydroxyoxetan-3-yl)methyl)pyrrolidin-3-yl)-4-azaspiro[2.5]octane-7-carboxamide] | 0.196 | 0.999 | 
(S)—N-((4S,7r)-3,3-difluoro-1-oxaspiro[3.5]nonan-7-yl)-4-(5-(5-fluoro-2-methoxypyridin-4-yl)-1H-pyrazole-3-carbonyl)-4-azaspiro[2.5]octane-7-carboxamide and (S)—N-((4R,7s)-3,3-difluoro-1-oxaspiro[3.5]nonan-7-yl)-4-(5-(5-fluoro-2-methoxypyridin-4-yl)-1H-pyrazole-3-carbonyl)-4-azaspiro[2.5]octane-7-carboxamide [Example 374] | 0.0131 | 0.0158 | 
